Test results reported in PubChem BioAssay (NCI).
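Cultured in 96-well plates, cells were exposed to test compound for 48 hours across five concentrations. GI50 is the concentration that inhibits growth by half. TGI: concentration producing complete growth inhibition.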

How the values were obtained:
Assay in all cases: NCI-60 cell line screen, 48 h
[1] = system: HCT-116 colon
[2] = system: SR leukemia
[3] = system: SNB-19 CNS
[4] = system: HOP-92 NSCLC
[5] = system: NCI-H522 lung
[6] = system: OVCAR-5 ovarian
[7] = system: UACC-257 melanoma
[8] = system: MALME-3M melanoma

## COC1OC(OC)C2C(c3c(C)cc(C)cc3C)=NOC12 (centres undefined)
[1]
  TGI: > 100 µM
[2]
  TGI: > 100 µM
[3]
  TGI: > 100 µM
[4]
  TGI: > 100 µM
[5]
  TGI: > 100 µM
[6]
  TGI: > 100 µM
[7]
  TGI: > 100 µM
[8]
  TGI: > 100 µM

## COc1ccc(C(=O)O/N=C2\CCCC\C2=C/c2ccccc2)cc1
[1]
  TGI: > 100 µM
[3]
  TGI: > 100 µM

## COc1ccc(NC(=O)CC/C(CC(=O)c2ccco2)=N/Nc2ccc([N+](=O)[O-])cc2[N+](=O)[O-])cc1
[1]
  TGI: > 100 µM
[2]
  TGI: 64.4 µM
[3]
  TGI: > 100 µM
[4]
  TGI: > 100 µM
[5]
  TGI: > 100 µM
[6]
  TGI: > 100 µM
[7]
  TGI: > 100 µM
[8]
  TGI: > 100 µM

## COC(=O)C1=Cc2cc3c(cc2[C@H](c2ccc4c(c2)OCO4)C1C(=O)OC)OCO3 (some centres undefined)
[1]
  TGI: > 100 µM
[2]
  TGI: > 100 µM
[3]
  TGI: > 100 µM
[4]
  TGI: > 100 µM
[6]
  TGI: > 100 µM
[7]
  TGI: > 100 µM
[8]
  TGI: > 100 µM

## CCCCN(CCCC)C(=Nc1ccccc1)N(CCCC)CCCC
[1]
  TGI: 13.8 µM
[3]
  TGI: 32 µM
[4]
  TGI: 7.06 µM
[5]
  TGI: 7.41 µM
[6]
  TGI: 27.8 µM
[7]
  TGI: 37.5 µM
[8]
  TGI: 22.5 µM

## CC(C)NC(=O)OCc1nnn2c1C(OC(=O)NC(C)C)CC2 (centres undefined)
[1]
  TGI: > 100 µM
[2]
  TGI: > 100 µM
[3]
  TGI: > 100 µM
[4]
  TGI: > 100 µM
[5]
  TGI: > 100 µM
[6]
  TGI: > 100 µM
[7]
  TGI: > 100 µM
[8]
  TGI: > 100 µM

## CCOC(=O)C(C(=O)c1ccccc1-c1ccccc1C(=O)O)=P(c1ccccc1)(c1ccccc1)c1ccccc1
[1]
  TGI: 42 µM
[2]
  TGI: 85.1 µM
[3]
  TGI: 92 µM
[7]
  TGI: 76.4 µM
[8]
  TGI: 66.9 µM

## COC(=O)C1=CC(=O)C(C(=O)Nc2ccc(OC)cc2)C(c2ccccc2)O1 (centres undefined)
[1]
  TGI: > 75.9 µM
[2]
  TGI: > 100 µM
[3]
  TGI: 42 µM
[4]
  TGI: 48.1 µM
[5]
  TGI: 90.1 µM
[6]
  TGI: > 100 µM
[7]
  TGI: > 100 µM
[8]
  TGI: > 84.8 µM

## CCN(CC)CCN(C)CC(C)(C)C(=O)/C=C/c1ccccc1
[2]
  TGI: 45.5 µM
[3]
  TGI: 28.4 µM
[4]
  TGI: 18.1 µM
[5]
  TGI: 21.4 µM
[6]
  TGI: 26.9 µM
[7]
  TGI: 24.4 µM
[8]
  TGI: 28.5 µM

## CCCCNC(=S)Nn1c(-c2ccccc2)nc2ccccc2c1=O
[1]
  TGI: > 100 µM
[4]
  TGI: > 100 µM
[5]
  TGI: > 100 µM
[6]
  TGI: > 100 µM
[7]
  TGI: > 100 µM
[8]
  TGI: > 100 µM

## CC(C)c1ccc2c(c1)CCC1C(C)(C)[C@@H](O)CC[C@]21C (some centres undefined)
[1]
  TGI: 34.1 µM
[2]
  TGI: 33.4 µM
[3]
  TGI: > 100 µM
[4]
  TGI: 52.8 µM
[5]
  TGI: 79 µM
[6]
  TGI: 41.7 µM
[8]
  TGI: 30.8 µM

## CN(C)C1(C#N)CCC2(CC1)OCCO2
[1]
  TGI: > 100 µM
[2]
  TGI: > 100 µM
[3]
  TGI: > 100 µM
[4]
  TGI: > 100 µM
[5]
  TGI: > 100 µM
[6]
  TGI: > 100 µM
[7]
  TGI: > 100 µM
[8]
  TGI: > 100 µM

## c1ccc([CH2][Sn]([CH2]c2ccccc2)([S]c2cccc3cccnc23)[S]c2cccc3cccnc23)cc1
[1]
  GI50: 0.165 µM
  TGI: 0.351 µM
[3]
  GI50: 0.853 µM
  TGI: 2.07 µM

## COC(=O)C(=O)C(C#N)c1cccc2ccccc12 (centres undefined)
[1]
  TGI: > 100 µM
[2]
  TGI: > 100 µM
[3]
  TGI: > 100 µM
[4]
  TGI: > 100 µM
[5]
  TGI: > 100 µM
[6]
  TGI: > 100 µM
[7]
  TGI: > 100 µM
[8]
  TGI: > 100 µM

## CCc1ccc(Cc2ccc(CC)c(NC(=O)C(=O)Cc3nc4ccccc4nc3C)c2CC)c(CC)c1NC(=O)C(=O)Cc1nc2ccccc2nc1C
[1]
  TGI: > 100 µM
[3]
  TGI: > 100 µM
[4]
  TGI: 43 µM
[5]
  TGI: > 100 µM
[6]
  TGI: > 100 µM
[7]
  TGI: > 100 µM
[8]
  TGI: > 100 µM

## N#Cc1c([N+](=O)[O-])cc(C(F)(F)F)cc1[N+](=O)[O-]
[1]
  TGI: 20 µM
[3]
  TGI: 32.4 µM
[4]
  TGI: 4.01 µM
[5]
  TGI: 1.24 µM
[6]
  TGI: 32.5 µM
[7]
  TGI: 19.2 µM
[8]
  TGI: 25.5 µM

## O=c1[nH]nc(-c2ccccc2)c(-c2ccccc2)c1-n1nc(-c2ccccc2)c2ccccc2c1=O
[1]
  TGI: > 100 µM
[2]
  TGI: > 100 µM
[4]
  TGI: > 100 µM
[5]
  TGI: > 100 µM
[6]
  TGI: > 100 µM
[7]
  TGI: > 100 µM
[8]
  TGI: > 100 µM

## Cc1ccc(S(=O)(=O)NCCCN(CCCNS(=O)(=O)c2ccc(C)cc2)S(=O)(=O)c2ccc(C)cc2)cc1
[1]
  TGI: > 100 µM
[2]
  TGI: > 100 µM
[3]
  TGI: > 100 µM
[5]
  TGI: > 100 µM
[7]
  TGI: > 100 µM
[8]
  TGI: > 100 µM

## C=CCCc1cc(OC)ccc1CN(C)C(C)(C)CO
[1]
  TGI: > 100 µM
[2]
  TGI: > 100 µM
[3]
  TGI: > 100 µM
[4]
  TGI: > 100 µM
[6]
  TGI: > 100 µM
[7]
  TGI: > 100 µM
[8]
  TGI: > 100 µM

## CC(=O)NNc1nc(C)c(C(/C=C/c2ccc(/C=C/C(=N\NC(=O)c3ccncc3)c3sc(NNC(C)=O)nc3C)cc2)=N/NC(=O)c2ccncc2)s1
[1]
  TGI: > 100 µM
[3]
  TGI: > 100 µM
[4]
  TGI: > 100 µM
[6]
  TGI: > 100 µM
[7]
  TGI: > 100 µM
[8]
  TGI: > 100 µM

## C=C1C(=O)OC2C1C(OC(=O)/C(=C/C)COC(C)=O)CC1(CO1)C1C(OC(=O)/C(=C/C)CO)C=C(C)C21 (centres undefined)
[1]
  TGI: 2.98 µM
[3]
  TGI: 13.9 µM
[6]
  TGI: 25.9 µM
[7]
  TGI: 6.99 µM
[8]
  TGI: 3.32 µM

## CCS[C@H]1NC(=O)C1[C@H](C)O[Si](C)(C)C(C)(C)C (some centres undefined)
[1]
  TGI: > 100 µM
[3]
  TGI: > 100 µM
[4]
  TGI: > 100 µM
[6]
  TGI: > 100 µM
[7]
  TGI: > 100 µM
[8]
  TGI: > 100 µM
